From ChEMBL document CHEMBL3885861, “Open TG-GATES”

Species on record: Rattus norvegicus
Assay: Open TG-GATES - Regimen: Daily Repeat
Format: toxicity, organism-based, Sprague-Dawley
Design: regimen Daily Repeat, gender Male, age 6 weeks
Details: in vivo, po, route gavage; for APTT / Bas / Eos / Fbg / Ht / Lym / MCHC / MCV / Mono / Neu / PT / Plat / RBC / Ret: tissue Blood; for KIDNEY_L / KIDNEY_R / KIDNEY_TOTAL: tissue Kidney; for AST / CRE / GLC / IP / K / LDH / RALB / TBIL / TC / TP / gamma-GTP: tissue Plasma
[1] = 30 mg/kg, 72 h, dose level Middle, time 3 day
[2] = 30 mg/kg, […], dose level Middle, time 7 day
[3] = 30 mg/kg, […], dose level Middle, time 14 day
[4] = 30 mg/kg, […], dose level Middle, time 28 day
[5] = 100 mg/kg, 72 h, dose level High, time 3 day
[6] = 100 mg/kg, […], dose level High, time 7 day
[7] = 100 mg/kg, […], dose level High, time 14 day
[8] = 100 mg/kg, […], dose level High, time 28 day

`CN(C)CCCN1c2ccccc2CCc2ccccc21` [IMIPRAMINE] gave a TERMINAL_BW [1] of 214.6 g, an APTT [1] of 16.4 s and a Bas [1] of 0%. It also gave an Eos [1] of 1.4%, a Fbg [1] of 303.4 mg/dL and a Ht [1] of 44.3%. It also gave a Lym [1] of 83.8%, an MCHC [1] of 33% and an MCV [1] of 61.8 fL. The Mono [1] was 2%, the Neu [1] was 12% and the PT [1] was 16.9 s. For the same compound, the Plat [1] was 115.8 x10_4/uL, the RBC [1] was 717.2 x10_4/ul and the Ret [1] was 3.2%. For the same compound, the KIDNEY_L [1] was 0.9 g, the KIDNEY_R [1] was 0.9 g and the KIDNEY_TOTAL [1] was 1.8 g. For the same compound, the AST [1] was 58.8 IU/L, the CRE [1] was 0.2 mg/dL and the GLC [1] was 182.4 mg/dL. It also gave an IP [1] of 7.6 mg/dL, a K [1] of 4.3 meq/L and an LDH [1] of 90.4 IU/L. For the same compound, the RALB [1] was 2.6 g/dL, the TBIL [1] was 0.058 mg/dL and the TC [1] was 77 mg/dL. The TP [1] was 5.9 g/dL, the gamma-GTP [1] was 1 IU/L and the TERMINAL_BW [2] was 244.7 g. For the same compound, the TERMINAL_BW [3] was 294.7 g, the TERMINAL_BW [4] was 362.7 g and the APTT [2] was 16.2 s. The Bas [2] was 0%, the Eos [2] was 1% and the Fbg [2] was 323.8 mg/dL. For the same compound, the Ht [2] was 41.6%, the Lym [2] was 78.6% and the MCHC [2] was 33%. For the same compound, the MCV [2] was 61.3 fL, the Mono [2] was 2% and the PT [2] was 16.1 s. The Plat [2] was 118.6 x10_4/uL, the RBC [2] was 678.2 x10_4/ul and the Ret [2] was 3.9%. It also gave an APTT [3] of 16.3 s, a Bas [3] of 0% and an Eos [3] of 1.2%. For the same compound, the Fbg [3] was 303.2 mg/dL, the Ht [3] was 42.5% and the Lym [3] was 75.8%. It also gave an MCHC [3] of 33.4%, an MCV [3] of 59.7 fL and a Mono [3] of 2.6%. For the same compound, the PT [3] was 16.3 s, the Plat [3] was 107.7 x10_4/uL and the RBC [3] was 712.4 x10_4/ul. It also gave a Ret [3] of 4.3%, an APTT [4] of 16.2 s and a Bas [4] of 0.2%. The Eos [4] was 1.2%, the Fbg [4] was 305.2 mg/dL and the Ht [4] was 45.7%. It also gave a Lym [4] of 80.4%, an MCHC [4] of 33.7% and an MCV [4] of 57.1 fL. It also gave a Mono [4] of 2%, a PT [4] of 16.3 s and a Plat [4] of 101.3 x10_4/uL. For the same compound, the RBC [4] was 801 x10_4/ul, the Ret [4] was 2.4% and the KIDNEY_L [2] was 1.1 g. For the same compound, the KIDNEY_R [2] was 1.1 g, the KIDNEY_TOTAL [2] was 2.1 g and the KIDNEY_L [3] was 1.2 g. It also gave a KIDNEY_R [3] of 1.2 g, a KIDNEY_TOTAL [3] of 2.4 g and a KIDNEY_L [4] of 1.3 g. For the same compound, the KIDNEY_R [4] was 1.3 g, the KIDNEY_TOTAL [4] was 2.7 g and the AST [2] was 59 IU/L. It also gave a CRE [2] of 0.2 mg/dL, a GLC [2] of 173 mg/dL and an IP [2] of 7 mg/dL. The K [2] was 4.2 meq/L, the LDH [2] was 88.8 IU/L and the RALB [2] was 2.5 g/dL. For the same compound, the TBIL [2] was 0.044 mg/dL, the TC [2] was 85 mg/dL and the TP [2] was 5.8 g/dL. The gamma-GTP [2] was 0.4 IU/L, the AST [3] was 53.6 IU/L and the CRE [3] was 0.2 mg/dL. It also gave a GLC [3] of 170.8 mg/dL, an IP [3] of 6.9 mg/dL and a K [3] of 4.3 meq/L. It also gave an LDH [3] of 100.6 IU/L, an RALB [3] of 2.6 g/dL and a TBIL [3] of 0.046 mg/dL. The TC [3] was 88.2 mg/dL, the TP [3] was 5.9 g/dL and the gamma-GTP [3] was 0.6 IU/L. It also gave an AST [4] of 53.8 IU/L, a CRE [4] of 0.2 mg/dL and a GLC [4] of 164.6 mg/dL. The IP [4] was 7 mg/dL, the K [4] was 4 meq/L and the LDH [4] was 45.4 IU/L. The RALB [4] was 2.7 g/dL, the TBIL [4] was 0.056 mg/dL and the TC [4] was 73.8 mg/dL. It also gave a TP [4] of 6.3 g/dL, a gamma-GTP [4] of 1 IU/L and a TERMINAL_BW [5] of 197.8 g. For the same compound, the APTT [5] was 15.5 s, the Bas [5] was 0% and the Eos [5] was 1%. The Fbg [5] was 334.4 mg/dL, the Ht [5] was 45.9% and the Lym [5] was 74.8%. For the same compound, the MCHC [5] was 33%, the MCV [5] was 62.6 fL and the Mono [5] was 2.4%. The PT [5] was 16.5 s, the Plat [5] was 126.7 x10_4/uL and the RBC [5] was 733.8 x10_4/ul. It also gave a Ret [5] of 2.8%, a KIDNEY_L [5] of 0.9 g and a KIDNEY_R [5] of 0.9 g. The KIDNEY_TOTAL [5] was 1.8 g, the AST [5] was 57.2 IU/L and the CRE [5] was 0.2 mg/dL. For the same compound, the GLC [5] was 163.8 mg/dL, the IP [5] was 7.8 mg/dL and the K [5] was 4.3 meq/L. The LDH [5] was 57.8 IU/L, the RALB [5] was 2.5 g/dL and the TBIL [5] was 0.05 mg/dL. It also gave a TC [5] of 93.8 mg/dL, a TP [5] of 5.7 g/dL and a gamma-GTP [5] of 0.8 IU/L. It also gave a TERMINAL_BW [6] of 201.5 g, a TERMINAL_BW [7] of 221.4 g and a TERMINAL_BW [8] of 293.5 g. The APTT [6] was 15.9 s, the Bas [6] was 0% and the Eos [6] was 1%. For the same compound, the Fbg [6] was 347.8 mg/dL, the Ht [6] was 45.6% and the Lym [6] was 82.8%. It also gave an MCHC [6] of 33.3%, an MCV [6] of 59.9 fL and a Mono [6] of 1.8%. For the same compound, the PT [6] was 16.9 s, the Plat [6] was 109.5 x10_4/uL and the RBC [6] was 762.2 x10_4/ul. The Ret [6] was 1.4%, the APTT [7] was 18 s and the Bas [7] was 0.4%. For the same compound, the Eos [7] was 1.4%, the Fbg [7] was 329.4 mg/dL and the Ht [7] was 46.8%. It also gave a Lym [7] of 69.8%, an MCHC [7] of 33.5% and an MCV [7] of 60.2 fL. It also gave a Mono [7] of 4.4%, a PT [7] of 17.3 s and a Plat [7] of 98.5 x10_4/uL. For the same compound, the RBC [7] was 777.6 x10_4/ul, the Ret [7] was 1.7% and the APTT [8] was 16.4 s. It also gave a Bas [8] of 0.2%, an Eos [8] of 1.2% and a Fbg [8] of 377.5 mg/dL. The Ht [8] was 46.7%, the Lym [8] was 70% and the MCHC [8] was 33.8%. For the same compound, the MCV [8] was 55.4 fL, the Mono [8] was 3% and the Neu [8] was 25.2%. The PT [8] was 16 s, the Plat [8] was 93.4 x10_4/uL and the RBC [8] was 842.5 x10_4/ul. The Ret [8] was 2.6%, the KIDNEY_L [6] was 1 g and the KIDNEY_R [6] was 0.9 g. It also gave a KIDNEY_TOTAL [6] of 1.9 g, a KIDNEY_L [7] of 1 g and a KIDNEY_R [7] of 0.9 g. The KIDNEY_TOTAL [7] was 1.9 g, the KIDNEY_L [8] was 1.2 g and the KIDNEY_R [8] was 1.2 g. The KIDNEY_TOTAL [8] was 2.4 g, the AST [6] was 51.6 IU/L and the CRE [6] was 0.2 mg/dL. For the same compound, the GLC [6] was 162.6 mg/dL, the IP [6] was 7.2 mg/dL and the K [6] was 4.1 meq/L. For the same compound, the LDH [6] was 79 IU/L, the RALB [6] was 2.5 g/dL and the TBIL [6] was 0.048 mg/dL. The TC [6] was 102.6 mg/dL, the TP [6] was 5.6 g/dL and the gamma-GTP [6] was 0.2 IU/L. For the same compound, the AST [7] was 75.8 IU/L, the CRE [7] was 0.2 mg/dL and the GLC [7] was 155.8 mg/dL. The IP [7] was 6.9 mg/dL, the K [7] was 4.2 meq/L and the LDH [7] was 73.6 IU/L. The RALB [7] was 2.6 g/dL, the TBIL [7] was 0.04 mg/dL and the TC [7] was 74.6 mg/dL. The TP [7] was 5.8 g/dL, the gamma-GTP [7] was 1.2 IU/L and the AST [8] was 56 IU/L. For the same compound, the CRE [8] was 0.2 mg/dL, the GLC [8] was 148.5 mg/dL and the IP [8] was 7 mg/dL. For the same compound, the K [8] was 4.3 meq/L, the LDH [8] was 40.5 IU/L and the RALB [8] was 2.7 g/dL. It also gave a TBIL [8] of 0.0425 mg/dL, a TC [8] of 91.8 mg/dL and a TP [8] of 6.2 g/dL. It also gave a gamma-GTP [8] of 0.5 IU/L.
